ChEMBL document CHEMBL1142962, “Antiproliferative prenylated stilbenes and flavonoids from Macaranga alnifolia from the Madagascar rainforest” (J Nat Prod, 2007)

System: A2780 (human ovarian cancer)
Test: Antiproliferative activity against drug-sensitive human A2780 cells

## CC(C)=CCC/C(C)=C/Cc1c(O)cc2c(c1O)C(=O)C[C@@H](c1ccc(O)cc1)O2 [BONANNIONE A]
  IC50: 24.5 µM
